The record followed here is PubChem BioAssay (NCI).

Common to all, as to test: inhibition of tumour cell growth, NCI panel, 48 h
The subject of experiment [1] is SW-620 colon.
For experiment [2], the system named is MDA-N.
Experiment [3] deals with U251 CNS.
For experiment [4], the system named is NCI-H23 lung.
For experiment [5], the system named is HOP-92 NSCLC.
Experiment [6] concerns BT-549 breast.
Experiment [7] deals with MCF7 breast.
For experiment [8], the system named is HL-60(TB) leukemia.
Experiment [9] relates to SK-MEL-5 melanoma.
The test system of experiment [10] is SR leukemia.

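Cells were grown in 96-well plates and exposed to each compound for 48 hours at five concentrations; endpoints were interpolated linearly between bracketing concentrations, or set to the highest concentration if not reached. TGI marks complete inhibition of growth.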

Turning to `COc1ccc(CCN2C(=O)CC34C=CC(CC3C2=O)O4)cc1OC` (stereo not given), the TGI in experiment [1], in [2], in experiment [3], in [4], in [5] and in experiment [6] was > 100 µM in each case. Also, the TGI in [7], in [8], in experiment [9] and in [10] was > 100 µM each time.
On to `C[n+]1cn(-c2nc3ccccc3nc2[N-]S(=O)(=O)c2ccccc2)c2ccccc21`, for which the TGI in experiment [1], in [2], in experiment [3], in [4], in experiment [5] and in experiment [6] was > 100 µM each time. The TGI in [7], in experiment [8], in [9] and in experiment [10] was > 100 µM throughout.
On to `Nc1c2cc3ccc2nc2ccc(cc12)OCCOCCOCCOCCOCCOCCO3`, for which the TGI in experiment [1], in [2], in experiment [3], in experiment [4], in experiment [5] and in experiment [6] was > 10 µM each time. Further, the TGI in experiment [7], in [8], in experiment [9] and in experiment [10] was > 10 µM throughout.
Regarding `C=CCn1c(-c2ccc(Cl)cc2)csc1=Nc1ccccc1OC`, the TGI in experiment [1] was > 100 µM; in experiment [2] it was > 59.6 µM; in experiment [3], > 100 µM; in [4] it was > 100 µM; in experiment [5], > 100 µM; in [6] it was > 100 µM. Besides, the TGI in experiment [7] is > 100 µM; in [8], 86.3 µM; in experiment [9], 8.11 µM; in experiment [10], > 100 µM.
Regarding `CCNC(=S)NNC(=O)CSc1nc2ccc(I)cc2c(=O)n1Cc1ccccc1`, the TGI in experiment [1] was > 100 µM; in experiment [2], > 100 µM; in [3] it was > 100 µM; in [4] it was > 100 µM; in experiment [5], 97.7 µM; in experiment [6], > 100 µM. Moreover, the TGI in experiment [7] was > 100 µM; in experiment [8], > 34.7 µM; in [9], > 100 µM; in experiment [10], > 100 µM.
`COc1ccc(/C=C/C(=O)Oc2ccccc2OC)cc1`: the TGI in experiment [1] is > 100 µM; in experiment [2], > 100 µM; in experiment [3] it was > 100 µM; in experiment [4], > 100 µM; in experiment [5], 97.7 µM; in experiment [6], > 100 µM. The TGI in experiment [7] was > 100 µM; in [8] it was > 32.5 µM; in experiment [9], > 100 µM; in experiment [10] it was 32.3 µM.
Take `CC(=O)NC1(C)C(C)C2CC1C(C)C2(C)C` (stereo not given): the TGI in experiment [1], in experiment [2], in [3], in [4], in [5] and in experiment [6] was > 100 µM in each case. Moreover, the TGI in experiment [7], in experiment [8], in [9] and in experiment [10] was > 100 µM each time.
